US8168651B2, “Protein kinase modulators” (Cylene Pharmaceuticals, Inc., priority 2008, dated 2012)
Read-outs that look alike come from different tables or passages of the source.

What was measured:
PARP-HSA enzyme = PARP-HSA enzyme (Homo sapiens (Human), UniProt P09874); assay: PARP assay (chemiluminescent PARP assay kit, Trevigen); assay type: biochemical; settings: for IC50: read-out: PARP Inhibition IC50
Experimental: Modulatory activity of compounds described herein was assessed in vitro in cell-free CK2 assays. Modulatory activity of compounds described herein also are assessed in vitro in cell-free PARP assays. These assays are described hereafter.
PARP assays are conducted using a chemiluminescent PARP assay kit (Trevigen). Briefly, reactions are performed in Histone-coated strip wells, by adding 10 microliters test compound dissolved in 1×PARP Buffer (prepared by mixing 20×PARP buffer diluted with high-purity water) and 15 microliters diluted PARP-HSA enzyme (diluted in 1×PARP buffer, 0.1 unit per well) to 25 microliters PARP cocktail (prepared from 10×PARP cocktail and 10× activated DNA, both 2.5 microliters per well and 20 microliters per well of 1×PARP buffer). The reactions are incubated at ambient temperature for 60 minutes, then the liquid was removed. After washing the wells four times with PBS (200 ul), 50 microliters of STREP-HRP (Horseradish Peroxidase) solution (diluted 500-fold in 1× Strep-Diluent) was added and the reactions were allowed to incubate for 30 minutes at ambient temperature. The liquid was removed and, after washing the wells four times with PBS (200 ul), 50 microliters each of PeroxyGlo A and B (Chemiluminescent Horseradish Peroxidase substrates) are added and the resulting chemiluminescence quantified on the SpectraMax M5 plate reader.

recombinant human PIM1 = recombinant human PIM1 (Homo sapiens (Human), UniProt P11309); assay: PIM-1 kinase activity in cell-free in vitro assay; assay type: biochemical; settings: cell-free; for inhibition at 0.5 µM: 500 nM compound, read-out: PIM-1: % inh 500 nM
[1] = tested on: HCT-116 human colorectal carcinoma cells; assay: Cell-proliferation assay using Alamar Blue dye; assay type: cell-based; settings: Homo sapiens;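 further: cells exposed to compound for about 4 days, then Alamar Blue added and dye fluorescence read after about 4 h, compared with medium-only control wells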
Jurkat = assay: Cell proliferation modulatory activity, Jurkat; assay type: cell-based; settings: Homo sapiens
MV-4-11 = assay: Cell proliferation modulatory activity, MV-4-11; assay type: cell-based; settings: Homo sapiens, MV4-11
K-562 = assay: Cell proliferation modulatory activity, K-562; assay type: cell-based; settings: Homo sapiens, K562
Flt3 = Flt3 (Homo sapiens (Human), UniProt P36888); assay: FLT-3 kinase activity in cell free in vitro assay; assay type: biochemical; settings: cell-free; read-out: FLT-3
[2] = HCT-116, read-out: HCT-116 (uM), cell proliferation modulatory activity, HCT-116, second column

Sequence of recombinant human PIM1 (P11309 whole entry): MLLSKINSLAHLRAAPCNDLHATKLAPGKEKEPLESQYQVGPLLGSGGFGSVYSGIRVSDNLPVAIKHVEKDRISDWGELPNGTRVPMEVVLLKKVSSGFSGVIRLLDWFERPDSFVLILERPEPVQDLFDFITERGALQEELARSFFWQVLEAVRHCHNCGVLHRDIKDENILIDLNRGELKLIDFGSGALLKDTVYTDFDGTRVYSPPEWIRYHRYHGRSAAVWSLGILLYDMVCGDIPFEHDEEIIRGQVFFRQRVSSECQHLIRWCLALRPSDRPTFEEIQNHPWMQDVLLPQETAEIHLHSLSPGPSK
Sequence of PARP-HSA enzyme (P09874 whole entry): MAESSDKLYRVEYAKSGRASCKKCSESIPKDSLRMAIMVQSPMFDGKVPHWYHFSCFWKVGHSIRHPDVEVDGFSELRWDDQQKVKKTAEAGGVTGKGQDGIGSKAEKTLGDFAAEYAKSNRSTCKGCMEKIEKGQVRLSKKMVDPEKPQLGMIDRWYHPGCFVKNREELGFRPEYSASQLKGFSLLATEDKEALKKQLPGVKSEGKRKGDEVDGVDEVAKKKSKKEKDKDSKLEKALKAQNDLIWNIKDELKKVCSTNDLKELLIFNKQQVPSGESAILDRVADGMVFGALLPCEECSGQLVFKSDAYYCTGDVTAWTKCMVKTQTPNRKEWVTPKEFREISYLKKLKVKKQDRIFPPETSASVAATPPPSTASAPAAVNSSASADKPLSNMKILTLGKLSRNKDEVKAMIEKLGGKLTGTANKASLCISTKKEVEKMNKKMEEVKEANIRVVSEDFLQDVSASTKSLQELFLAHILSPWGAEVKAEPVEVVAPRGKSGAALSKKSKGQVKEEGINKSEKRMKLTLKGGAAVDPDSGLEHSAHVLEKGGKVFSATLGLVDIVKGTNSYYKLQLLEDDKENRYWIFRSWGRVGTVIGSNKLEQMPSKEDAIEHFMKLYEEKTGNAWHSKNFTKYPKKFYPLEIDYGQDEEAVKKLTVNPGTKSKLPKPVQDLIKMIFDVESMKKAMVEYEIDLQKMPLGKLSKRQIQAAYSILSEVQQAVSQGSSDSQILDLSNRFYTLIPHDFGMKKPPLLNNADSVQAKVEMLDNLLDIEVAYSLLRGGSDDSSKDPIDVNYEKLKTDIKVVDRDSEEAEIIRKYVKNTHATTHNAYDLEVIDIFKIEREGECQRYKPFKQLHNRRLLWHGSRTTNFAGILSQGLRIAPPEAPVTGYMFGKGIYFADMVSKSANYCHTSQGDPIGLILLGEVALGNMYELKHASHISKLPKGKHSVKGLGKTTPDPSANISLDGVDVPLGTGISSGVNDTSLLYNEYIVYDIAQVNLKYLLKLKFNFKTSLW
Sequence of Flt3 (P36888 27-993): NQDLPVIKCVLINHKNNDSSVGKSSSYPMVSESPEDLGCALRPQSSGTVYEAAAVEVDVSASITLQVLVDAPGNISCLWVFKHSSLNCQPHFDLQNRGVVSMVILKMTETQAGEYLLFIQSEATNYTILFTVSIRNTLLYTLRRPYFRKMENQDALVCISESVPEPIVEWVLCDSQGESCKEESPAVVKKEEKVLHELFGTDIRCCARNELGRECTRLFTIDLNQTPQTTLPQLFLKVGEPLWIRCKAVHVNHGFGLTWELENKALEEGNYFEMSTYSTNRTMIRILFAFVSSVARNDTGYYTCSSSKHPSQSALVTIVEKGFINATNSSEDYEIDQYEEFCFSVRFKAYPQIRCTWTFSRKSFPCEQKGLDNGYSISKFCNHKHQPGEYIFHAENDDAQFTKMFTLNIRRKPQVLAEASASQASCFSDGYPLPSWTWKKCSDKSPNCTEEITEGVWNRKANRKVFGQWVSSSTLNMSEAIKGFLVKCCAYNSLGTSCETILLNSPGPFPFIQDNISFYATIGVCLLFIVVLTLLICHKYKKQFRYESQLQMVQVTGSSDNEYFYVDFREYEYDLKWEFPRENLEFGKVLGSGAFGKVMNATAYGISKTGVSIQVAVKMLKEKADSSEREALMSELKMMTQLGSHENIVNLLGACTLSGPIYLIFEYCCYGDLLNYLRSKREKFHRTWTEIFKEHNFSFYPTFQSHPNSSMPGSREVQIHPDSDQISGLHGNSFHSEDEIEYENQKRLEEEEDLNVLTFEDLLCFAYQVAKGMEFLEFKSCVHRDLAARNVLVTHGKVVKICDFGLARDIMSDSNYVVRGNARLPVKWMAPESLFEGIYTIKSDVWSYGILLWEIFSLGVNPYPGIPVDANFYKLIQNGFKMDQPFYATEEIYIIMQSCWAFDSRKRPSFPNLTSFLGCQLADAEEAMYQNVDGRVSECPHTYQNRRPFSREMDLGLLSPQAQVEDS

| inhibition at 0.5 µM (recombinant human PIM1) | IC50 (recombinant human PIM1) | IC50 [1, 2] | IC50 (Jurkat) | IC50 (MV-4-11) | IC50 (K-562) | Compound | other results |
| --- | --- | --- | --- | --- | --- | --- | --- |
| – | – | – | – | – | – | O=c1[nH]c2cc(-c3nnn[nH]3)ccc2c2ccccc12 | IC50 (PARP-HSA enzyme): 0.03 µM |
| – | – | – | – | – | – | O=C(O)c1ccc2c(c1)[nH]c(=O)c1ccncc12 | IC50 (PARP-HSA enzyme): 1 µM |
| – | – | – | – | – | – | O=C(O)c1ccc2c3sccc3c(=O)n(CCCO)c2c1 | PARP % inhib @ 1 uM (PARP-HSA enzyme): 21% |
| – | – | – | – | – | – | O=c1[nH]c2cc(-c3nn[nH]n3)ccc2c2sccc12 | PARP % inhib @ 1 uM (PARP-HSA enzyme): 39% |
| – | – | – | – | – | – | CN(C)CCn1c(=O)c2ccsc2c2ccc(C(=O)O)cc21 | PARP % inhib @ 1 uM (PARP-HSA enzyme): 5% |
| 15.7% | 0.454 µM | > 10 µM | 6.12 µM | 8.33 µM | > 10 µM | O=C(O)c1ccc2c(c1)nc(Nc1ccccc1)c1ccsc12 | IC50 ([1]; HCT-116, read-out: HCT-116 (uM), cell proliferation modulatory activity, HCT-116, first column): 10 µM |
| -3.3% | – | – | 7.6 µM | – | 6.26 µM | c1ccc(Nc2nc3cc(-c4nnc[nH]4)ccc3c3sccc23)cc1 | IC50 ([1]; HCT-116, HCT-116, second column, read-out: HCT-116 (uM), cell proliferation modulatory activity): 4.9 µM |
| 83.3% | 0.345 µM | – | 8.89 µM | – | – | Clc1cccc(Nc2nc3cc(-c4nnn[nH]4)ccc3c3sccc23)c1 | – |
| 81.7% | 0.329 µM | > 10 µM | 4.22 µM | – | – | CNC(=O)c1cccc(Nc2nc3cc(-c4nnn[nH]4)ccc3c3sccc23)c1 | – |
| -3.02% | – | – | 0.683 µM | – | – | COC(=O)c1ccc2c(c1)nc(Nc1ccccc1)c1ccncc12 | – |
| 75.9% | 0.088 µM | – | 6.52 µM | 1.12 µM | 5.86 µM | COc1cccc(Nc2nc3cc(C(=O)O)ccc3c3cnccc23)c1 | IC50 (Flt3): 0.009 µM |
| 82% | 0.115 µM | 4.34 µM | 2.68 µM | 1.7 µM | 7.44 µM | O=C(O)c1ccc2c(c1)nc(Nc1ccc(F)c(Cl)c1)c1ccncc12 | IC50 (Flt3): 0.041 µM |
| 10.2% | – | 3.94 µM | 4.25 µM | – | – | COC(=O)c1ccc2c(c1)nc(Nc1ccc(F)c(Cl)c1)c1ccncc12 | – |
| 19.4% | – | – | 3.4 µM | – | – | COC(=O)c1ccc2c(c1)nc(Nc1cccc(OC)c1)c1ccncc12 | – |
| 54.8% | 0.368 µM | – | 4.29 µM | – | – | O=C(O)c1ccc2c(c1)nc(Nc1ccc(F)c(Cl)c1)c1ncncc12 | – |
| 84.4% | 0.082 µM | > 10 µM | 5.86 µM | 0.333 µM | > 10 µM | O=C(O)c1ccc2c(c1)nc(Nc1cc(F)cc(F)c1)c1ccsc12 | – |
| 82.7% | 0.136 µM | > 10 µM | 5.92 µM | 0.475 µM | > 10 µM | O=C(O)c1ccc2c(c1)nc(Nc1cccc(F)c1)c1ccsc12 | – |
| 18.3% | – | > 10 µM | 8.69 µM | – | – | CNC(=O)c1cccc(Nc2nc3cc(C(=O)O)ccc3c3sccc23)c1 | – |
| 96.1% | 0.143 µM | – | 3.2 µM | 2.28 µM | > 10 µM | O=C(O)c1ccc2c(c1)nc(Nc1cccc(F)c1)c1ccncc12 | – |
| 46.8% | – | > 10 µM | 6.97 µM | – | – | O=C(NC1CC1)c1cccc(Nc2nc3cc(-c4nnn[nH]4)ccc3c3sccc23)c1 | – |
| 80% | > 1.1 µM | 4.05 µM | 2.59 µM | – | 2.41 µM | O=C(O)c1ccc2c(c1)nc(Nc1cc(F)cc(F)c1)c1ncncc12 | – |
| 68.2% | 0.37 µM | 7.19 µM | 0.882 µM | > 10 µM | 1.13 µM | O=C(O)c1ccc2c(c1)nc(Nc1cccc(Cl)c1)c1ncncc12 | – |
| 45% | – | – | 9.43 µM | – | – | Fc1cccc(Nc2nc3cc(-c4nnn[nH]4)ccc3c3cnccc23)c1 | – |
